Among the data in patent publication US8686043B2, “Heterocyclic sulfonamides, uses and pharmaceutical compositions thereof” (Pfizer Inc., priority 2009, dated 2014) are EC50 values, retold here.

The subject of this assay is AMPA receptors. In words: AMPA ES Cell FLIPR Screen (AMPA Potentiator Assay). The format is cell-based, murine. As to conditions: ES cell-derived neurons, FLIPR (Fluo-4), 32 μM AMPA challenge; values marked * are the geometric mean of 2-5 EC50 determinations. The source says:
Growth and Maintenance of ES Cells
Murine ES cell line E14, with a targeted mutation in the Sox1 gene and a neuroectodermal marker that offers G418 resistance when the Sox1 gene is expressed (Stem Cell Sciences, West Mains Road, Edinburgh, Scotland EH9 3JQ) may be used in all experiments. ES cells may be maintained undifferentiated as previously described (Methods For The Isolation And Maintenance Of Murine Embryonic Stem Cells; Roach-M-L, McNeish-J-D., Methods in Molecular Biology, 185, 1-16 (2002)). Briefly, ES cells may be grown in stem cell culture media comprising a base medium of Knockout™ D-MEM (Invitrogen 5791 Van Allen Way, Carlsbad, Calif. USA 92008), supplemented with 15% ES qualified Fetal Bovine Serum (FBS) (Invitrogen), 0.2 mM L-Glutamine (Invitrogen), 0.1 mM MEM non-essential amino acids (Invitrogen), 30 μg/ml Gentamicin […] (Invitrogen), 1000 U/ml ESGRO™ (CHEMICON International, Inc., 28820 Single Oak Drive, Temecula, Calif. 92590) and 0.1 mM 2-mercaptoethanol (Sigma, 3050 Spruce St., St. Louis, Mo. 63103). ES cells may then be plated on gelatin-coated dishes (BD Biosciences, 2350 Qume Drive, San Jose, Calif. 95131), wherein the media is changed daily and the cells dissociated with 0.05% Trypsin EDTA (Invitrogen) every other day.
Neural In Vitro Differentiation of ES Cells
Embryoid Body Formation: Prior to embryoid body (EB) formation the ES cells may be weaned from FBS onto Knockout Serum Replacement™ (KSR) (Invitrogen). To form EBs, ES cells may be dissociated into a single cell suspension, then 3×10^6 cells plated in bacteriology dishes (Nunc 4014) and grown as a suspension culture in NeuroEB-I medium that consisted of Knockout™ D-MEM (Invitrogen), supplemented with 10% KSR (Invitrogen), 0.2 mM L-Glutamine (Invitrogen), 0.1 mM MEM non-essential amino acids (Invitrogen), 30 μg/ml Gentamicin (Invitrogen), 1000 U/ml ESGRO™ (CHEMICON International, Inc.), 0.1 mM 2-mercaptoethanol (Sigma) and 150 ng/ml Transferrin (Invitrogen). The plates may then be put on a Stovall Belly Button™ shaker in an atmospheric oxygen incubator. The media may be changed on day 2 of EB formation with NeuroEB-I and on day 4 with NeuroEB-II (NeuroEB-I plus 1 μg/ml mNoggin (R&D Systems, 614 McKinley Place N.E. Minneapolis, Minn. 55413)
Neuronal Precursor Selection and Expansion: On day 5 of EB formation, EBs may be dissociated with 0.05% Trypsin EDTA, and 4×10^6 cells/100 mm dish may then be plated on Laminin coated tissue culture dishes in NeuroEB-II-G418 medium that consisted of a base medium of a 1:1 mixture of D-MEM/F12 supplemented with N2 supplements and NeuroBasal Medium supplemented with B27(I ASSUME THIS IS THE VITAMIN) supplement and 0.1 mM L-Glutamine (all from Invitrogen). The base medium may then be supplemented with 10 ng/ml bFGF (Invitrogen), 1 μg/ml mNoggin, 500 ng/ml SHH-N (IS THIS SONIC HEDGEHOG FROM ProSpecBio Rehovot Science Park, P.O. BOX 398, Rehovot 76103, Israel), 100 ng/ml FGF-8b (R&D Systems), 1 μg/ml Laminin and 200 μg/ml G418 (Invitrogen) for selection of neuronal precursors expressing Sox-1. The plates may then be put in an incubator containing 2% oxygen and maintained in these conditions. During the 6-day selection period, the NeuroEB-II ([…]) media should be changed daily. On day 6, the surviving neuronal precursor foci may then be dissociated with 0.05% Trypsin EDTA and the cells plated at a density of 1.5×10^6 cells/100 mm Laminin coated dish in Neuroll ([…])-G418 medium. The cells may then be dissociated every other day for expansion, and prepared for cryopreservation at passage 3 or 4. The cryopreservation medium typically contains 50% KSR, 10% dimethyl sulfoxide (DMSO) (Sigma) and 40% Neurol([…])-G418 medium. Neuronal precursors may be cryopreserved at a concentration of 4×10^6 cells/ml and 1 ml/cryovial in a controlled rate freezer overnight then transferred to an ultra-low freezer or liquid nitrogen for long-term storage. […]

For the molecule `CC(C)S(=O)(=O)N[C@H]1CCCC[C@H]1Oc1ccc(-c2ccccc2OC(F)(F)F)nc1` [Example 41, N-[(1S,2R)-2-({6-[2-(trifluoromethoxy)phenyl]pyridin-3-yl}oxy)cyclohexyl] propane-2-sulfonamide], the EC50 – broadly, the concentration giving half of the maximal effect – turned out to be 331 nM.
The result for `CC(C)S(=O)(=O)N[C@H]1CCCC[C@H]1Oc1ccc(-c2ccc(C#N)s2)nc1` [Example 42, N-[(1S,2R)-2-{[6-(5-cyano-2-thienylpyridin)-3-yl]oxy}cyclohexyl] propane-2-sulfonamide] reads 2780 nM.
`CC(C)S(=O)(=O)N[C@H]1CCCC[C@H]1Oc1ccc(N2CCCCC2)cc1` [Example 54, N-[(1S,2R)-2-(4-piperidin-1-ylphenoxy)cyclohexyl]pro-pane-2-sulfonamide]: the EC50 was found to be 503 nM.
